According to patent publication US10363257B2 (ZENITH EPIGENETICS LTD., priority 2013, dated 2019):

Columns and labels:
hIL-6 mRNA = assay: Inhibition of hIL-6 mRNA transcription in LPS-stimulated U937 cells; type: cell-based; conditions: Homo sapiens, U-937; PMA-differentiated U937 cells, 1 h pretreatment, 1 ug/mL LPS stimulation, 3 h; read-out: IL-6 activity (Inhibition of hIL-6 mRNA Transcription)
In short: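 U937 cells differentiated 3 days with 60 ng/mL PMA, pretreated 1 h with compound (0.1% DMSO), then stimulated with 1 ug/mL E. coli LPS for 3 h at 37 °C. hIL-6 mRNA measured by one-step TaqMan RT-qPCR, normalized to cyclophilin. Fold expression relative to control; triplicate wells.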

hApoA-1 mRNA = assay: Up-regulation of hApoA-1 mRNA transcription in Huh7 cells; type: cell-based, human; conditions: EC170, Huh7 cells, 48 h treatment, ApoA-I mRNA
Protocol: In this example, ApoA-I mRNA in tissue culture cells was quantitated to measure the transcriptional up-regulation of ApoA-I when treated with a compound of the invention.
Huh7 cells (2.5×10^5 per well) were plated in a 96-well plate using 100 μL DMEM per well, (Gibco DMEM supplemented with penicillin/streptomycin and 10% FBS), 24 h before the addition of the compound of interest. After 48 h treatment, the spent media was removed from the Huh-7 cells and placed on ice (for immediate use) or at −80° C. (for future use) with the “LDH cytotoxicity assay Kit II” from Abcam. The cells remaining in the plate were rinsed with 100 μL PBS.
Then 85 μL of cell lysis solution was added to each well and incubated for 5-10 min at room temperature, to allow for complete cell lysis and detachment. mRNA was then prepared using the “mRNA Catcher PLUS plate” from Life Technologies, according to the protocol supplied. After the last wash, as much wash buffer as possible was aspirated without allowing the wells to dry. […]
The eluted mRNA isolated was then used in a one-step real-time PCR reaction, using components of the Ultra Sense Kit together with Life Technologies primer-probe mixes. Real-time PCR data was analyzed, using the Ct values, to determine the fold induction of each unknown sample, relative to the control (that is, relative to the control for each independent DMSO concentration).

[1] = In vivo efficacy in experimental autoimmune encephalomyelitis (EAE) model of MS; design: species or system mouse; conditions: EAE mice (MOG35-55/CFA, female C57Bl/6), 50 to 125 mg/kg b.i.d. from time of immunization
Description: Experimental autoimmune encephalomyelitis (EAE) is a T-cell-mediated autoimmune disease of the CNS which shares many clinical and histopathological features with human multiple sclerosis (MS). EAE is the most commonly used animal model of MS. […] Cytokines IL-23, IL-6 and IL-17, which are either critical for Th1 and Th17 differentiation or produced by these T cells, play a critical and non-redundant role in EAE development. Therefore, drugs targeting production of these cytokines are likely to have therapeutic potential in treatment of MS.
Compounds of Formula I or la were administered at 50 to 125 mg/kg b.i.d. from time of immunization to EAE mice to assess anti-inflammatory activity. In this model, EAE is induced by MOG35-55/CFA immunization and pertussis toxin injection in female C57BI/6 mice.

**Q.** What does the source list for `Cc1noc(C)c1-c1cc(N)c2ncn(Cc3ccccc3)c2c1` [Example Compound 7, 1-Benzyl-6-(3,5-dimethylisoxazol-4-yl)-1H-benzo[d]imidazol-4-amine]?
**A.** IC50 (hIL-6 mRNA): ≤ 300 nM; ApoA-1 activity (hApoA-1 mRNA): +++ (EC170 value less than or equal to 0.3 μM were deemed to be highly active (+++)); In vivo activity [1]: Active
